Assay [1] has as its system SKNBE2. The assay can be described thus: Proliferation assay, Methyl violet staining. In kind it is cell-based. The settings on record: inhibition values; neuroblastoma cell line; 5 days of incubation; mean of 6 wells. How it is done:
(§1) Compound INK-150.46 (or SLB-605) was assayed against several cancer cell lines in proliferation assays.
(§2) The measurements were taken using an in vitro test to measure cell growth based on Methyl violet staining after 5 days of incubation with the aforementioned drug or control vehicle (DMSO). The procedure was carried out in a 96-well plate. After 1 wash with phosphate-buffered saline (PBS), cells were stained for 20 minutes at room temperature with Methyl violet (0.5 % w/v in water). After 5 washes with PBS, and the addition of acetic acid (10% in water), plates were read in a spectrophotometer at 590 nm. All conditions were tested in 6 independent wells and results expressed as a mean of all replicates.

The test system of assay [2] is SHSY5Y. The assay can be described thus: Proliferation assay, Methyl violet staining. In kind it is cell-based. The settings on record: inhibition values; neuroblastoma cell line; 5 days of incubation; mean of 6 wells. The protocol:
as §1, §2

For assay [3], the system named is RH4. As to the kind of experiment: Proliferation assay, Methyl violet staining. The settings on record: inhibition values; rhabdomyosarcoma cell line; 5 days of incubation; mean of 6 wells. In kind it is cell-based. The protocol: as §1, §2
The test system of assay [4] is RD. The assay can be described thus: Proliferation assay, Methyl violet staining. In kind it is cell-based. Conditions: inhibition values; rhabdomyosarcoma cell line; 5 days of incubation; mean of 6 wells. How it is done: as §1, §2
The subject of assay [5] is U2OS. As to the kind of experiment: Proliferation assay, Methyl violet staining. In kind it is cell-based. The settings on record: osteosarcoma (OS) cell line; 5 days of incubation (Figure 7). The protocol:
as §1, §2

Assay [6] concerns NFATc activation in HEK 293T cells. The assay can be described thus: NFATc activation, 3xNFAT-luc dual-luciferase reporter assay. In kind it is cell-based, human. The settings on record: HEK 293T cells stimulated with ionomycin, PMA and CaCl2; compounds for 2 hours; at least at 100, 50 and 20 µM (Figure 1). The protocol:
To determine the effect of compounds of formula (I) on NFATc activation, HEK 293T cells were transfected with 3xNFAT-luc reporter gene and Renilla-luc plasmid as control of gene transfection. After 24 hours, to activate the cellular CN -NFATc signaling pathway, cells were stimulated with ionomycin (lo), PMA and CaCl2 for 4 h to raise intracellular concentration of calcium. As positive control of inhibition of CN activity, cells were treated with 1 µM of CsA 30 min prior to Io/PMA/CaCl2 stimulation. Then, cells were treated with compounds of formula (I) at several concentrations for 2 hours and light units analyzed following manufacture's protocol of the dual-luciferase reporter assay system (Figure 1, Functional effect of pair related structure compounds on NFATc activation).
On the technique in general: Reporter assays use an easily measured gene product as a stand-in for the process of interest.

The structures appear in SMILES notation.

As to `Cc1c(Cl)cc(F)cc1S(=O)(=O)N1CCC[C@H]1C(=O)N(Cn1nnc2ccccc21)c1ccccc1` [INK-150.46, (S)-N-((1H-Benzo[d][1,2,3]triazol-1-yl)methyl)-1-((3-chloro-5-fluoro-2-methylphenyl)sulfonyl)-N-phenylpyrrolidine-2-carboxamide], the “Effect over SKNBE2 (%)” value in assay [1] came to 59.5%. For the same compound, the “Effect over SHSY5Y (%)” value in assay [2] worked out at 48.8%. In assay [3], the “Effect over RH4 (%)” value stood at 78.1%. The “Effect over RD (%)” value in assay [4] is 75%. The “inhibitory effect over U2OS (proliferation)” value in assay [5] is “inhibitory effect”. The NFATc activation result in assay [6] was “strongly inhibits NFATc activation”.

For the origin of these results see patent publication EP4356909A1, “1-(SULFONYL)-N-PHENYLPYRROLIDINE-2-CARBOXAMIDES DERIVATIVES AND USE THEREOF” (Selabtec Sciences, SLU, priority 2022, dated 2024).
